The text below walks through data of US20200003760A1, “IN-VITRO METHODS FOR CLASSIFYING DRUGS ACCORDING TO THEIR POTENTIAL TO CAUSE LIVER CELL INJURY” (Board of Trustees of Michigan State University, priority 2018, published 2020).

Entries after “also recorded” stand apart in the source; their conditions may differ. Where two headings read alike, the source gives them in different places.

One series relates to HepG2 cells. The experiment in a line: Drug/cytokine-induced cytotoxicity (% LDH release) concentration-response in HepG2 cells. Format: cell-based, human. Also noted: key to Deltadiff: LDH release percentage points (drug/TNF Delta minus drug/VEH Delta). The settings on record: for R10 IFN: with IFN; for R10 TNF: with TNF; for R10 TNF/IFN / EC10 TNF/IFN: with TNF and IFN; for Deltadiff: Delta of drug/TNF curve minus Delta of drug/VEH curve (LDH percentage); for TNF change: D10TNF − D10VEH; for cytotoxic interaction of drug with TNF: TNF 10 ng/ml; for cytotoxicity of drug on its own (LDH release): absence of cytokines; for EC10: value corresponding to 10% of Delta (max-min); for EC10 / EC10 IFN / EC10 TNF / EC10 TNF/IFN: NA = no significant increase; for EC10 IFN / EC10 TNF / EC10 TNF/IFN: value corresponding to 10% of Delta; for EC10 IFN: with IFN 10 ng/ml; for EC10 TNF: with TNF 10 ng/ml; for effect of IFN coexposure on the drug/TNF cytotoxic interaction: TNF and IFN 10 ng/ml each. The protocol:
Cells were passed or used for experiments when they reached approximately 80% confluence. Cells were used at passage 6-16.
HepG2 cells were plated at a density of 4×10^4 cells per well in black-walled, 96-well, tissue culture plates and were allowed to attach overnight before being treated with compounds. Drugs were reconstituted in vehicles consisting of sterile water or DMSO (concentration less than 0.5%). Cells were treated with various concentrations of the drug or its vehicle (control) alone or in combination with the cytokines TNF (10 ng/ml) and/or IFN (10 ng/ml) or their PBS vehicle (VEH). Cytotoxicity was evaluated as lactate dehydrogenase (LDH) activity released from the cells into culture medium using the Homogeneous Membrane Integrity Assay kit from Promega (Madison, Wis.).
Concentration-response curves were generated for 24 drugs, 14 of which are associated with human IDILI and 10 of which are not. […] This was necessary because four-parameter logistic modeling used in the statistical analysis requires well defined, sigmoidal concentration-response curves. Cells were exposed to drug/cytokine combinations for 24 hours. For analysis of drug concentration-response data, concentrations of each drug were expressed as a fraction of its Cmax.
Defining covariates: four-parameter logistic model. In the first phase, variables (potential covariates) for use in the classification analysis were defined from the analysis of drug concentration-response data. Initially, a one-way analysis of variance (ANOVA) was used as an omnibus test to determine if a particular treatment (e.g. drug alone or in combination with TNF and/or IFN) caused a significant change in LDH release relative to baseline (i.e., LDH release in the absence of drug, hereafter designated “min”). The criterion for significance for the ANOVA was set at α=0.01. A 1% level of significance was used to rule out more vigorously marginal relationships between concentration and response.
where LDH(x) is the percentage of LDH released at a given concentration x; x=[drug]/Cmax; min=the % LDH release at 0 drug concentration (i.e., baseline); and max=the maximal LDH response (i.e., maximum % LDH release).
where D10 is a categorical variable related to reaching a threshold LDH response above which a drug is classified as positively associated with IDILI. D10 is defined as 0 if Delta<10% LDH release and as 1 if Delta≥10% LDH release.
The base covariate R10 represents the [drug]/Cmax value associated with an increase in 10 LDH percentage points above min for a particular treatment condition and was determined by the equation:
R10 was considered to be 0 when the Delta<10% LDH (i.e. when D10=0).
EC50 quotient, EC10 quotient and R10 quotient represent the ratio between the EC50, EC10 or R10 of the drug/cytokine concentration-response curve and the respective value for the drug/VEH concentration-response curve. In some instances, the value derived from this calculation is indeterminate (i.e. when the denominator=0). In order to incorporate the quotient values into the classification models described below, the categorical variable “Q” was used to eliminate the possibility of the quotient being indeterminate. Q is defined as 0 if Delta VEH and/or Delta cytokine is <10% LDH and 1 if both Delta VEH and Delta cytokine are ≥10% LDH. […] The same condition was applied for calculation of EC10 quotient and R10 quotient.
Deltadiff represents the difference between the Delta of the drug/cytokine concentration-response curve and the Delta of the drug/VEH curve. In other words, Deltadiff=(Delta cytokine)−(Delta VEH). FIG. 1 graphically illustrates several of the covariates defined above. […] In addition to the covariates derived from the concentration-response curves, the maximal therapeutic plasma drug concentration (Cmax) in human patients was used in some models (Table 1).

The conditions of series [1]: maximal plasma concentration after pharmacologic dosing in human patients; cited from earlier work.
For series [2] the following is noted: cited from earlier work; for True classification: IDILI in human patients; for IDILI liability: criteria of Xu et al. (2008).
The mark [3] stands for this setting: 10 percent increase in LDH response above min, 0 when D10 = 0, drug alone (VEH).
Where [4] appears, read: 10 percent increase in LDH response above min, 0 when D10 = 0.
[5] abbreviates: Homo sapiens, HepG2, categorical, Delta threshold 10 LDH percentage points, drug alone (VEH), read-out: D10.
The mark [6] stands for this setting: Homo sapiens, HepG2, maximal LDH response, drug alone (VEH), 24 h, read-out: max.

On to `C[C@H]1COc2c(N3CCN(C)CC3)c(F)cc3c(=O)c(C(=O)O)cn1c23` [Levofloxacin], for which the R10 with HepG2 cells (setting [3]) is 0 [drug]/Cmax. In the series on HepG2 cells (setting [4]), the “R10 IFN” value is 0 [drug]/Cmax, the “R10 TNF” value is 0 [drug]/Cmax and the “R10 TNF/IFN” value was 0 [drug]/Cmax. The Deltadiff in the series on HepG2 cells is recorded as 0. In the series with HepG2 cells (setting [5]), the Emax was below 10%. Besides, in the series on HepG2 cells (setting [6]), the Emax is 14%. Moreover, the TNF change in the series on HepG2 cells (categorical) was 0. For the same molecule, the Cmax in series [1] is 15.7 µM.
`COc1c(N2C[C@@H]3CCCN[C@@H]3C2)c(F)cc2c(=O)c(C(=O)O)cn(C3CC3)c12` [Moxifloxacin]: the R10 with HepG2 cells (setting [3]) was 0 [drug]/Cmax. In the series on HepG2 cells (setting [4]), the “R10 IFN” value is 0 [drug]/Cmax, the “R10 TNF” value is 0 [drug]/Cmax and the “R10 TNF/IFN” value was 0 [drug]/Cmax. In addition, the Deltadiff in the series on HepG2 cells came out at 0. In the series on HepG2 cells (setting [5]), the Emax was below 10%. For the same molecule, in the series with HepG2 cells (setting [6]), the Emax is 9.7%. In addition, the TNF change with HepG2 cells (categorical) worked out at 0. Also, the highest concentration (Cmax) in series [1] was 6.2 µM.
On to `CC(C)C(=O)Nc1ccc([N+](=O)[O-])c(C(F)(F)F)c1` [Flutamide], for which, in the series with HepG2 cells (setting [3]), the R10 was 0 [drug]/Cmax. Besides, in the series with HepG2 cells (setting [4]), the “R10 IFN” value is 0 [drug]/Cmax, the “R10 TNF” value was 0 [drug]/Cmax and the “R10 TNF/IFN” value was 0 [drug]/Cmax. Further, the Deltadiff in the series on HepG2 cells came out at 0.4. Moreover, in the series with HepG2 cells (HepG2, 24 h), the “cytotoxic interaction of drug with TNF” value is reported as “very small but statistically significant increases in LDH release” and the “cytotoxicity of drug on its own (LDH release)” value (shortened to “cytotoxicity of drug on its own”) was “statistically significant increase in LDH release; also recorded: very small but statistically significant increases in LDH release”. For the same molecule, the “synergy with cytokines to kill HepG2 cells” value in the series with HepG2 cells (HepG2, 24 h, TNF and/or IFN) was “did not synergize with cytokines to kill HepG2 cells”. Besides, the Emax with HepG2 cells (setting [5]) was below 10%. Besides, the Emax in the series with HepG2 cells (setting [6]) was 24.6%. Further, the TNF change in the series with HepG2 cells (categorical) stood at 0. The Cmax in series [1] is 0.36 µM. Moreover, in series [2], the True classification result is reported as “IDILI+” and the IDILI liability result is “IDILI+”.
Take `CC(C)Cc1ccc(C(C)C(=O)O)cc1` (stereo not shown) [Ibuprofen]: the R10 with HepG2 cells (setting [3]) is 51.7 [drug]/Cmax. Moreover, in the series with HepG2 cells (setting [4]), the “R10 IFN” value is 51.3 [drug]/Cmax, the “R10 TNF” value was 14.4 [drug]/Cmax and the “R10 TNF/IFN” value is 15.5 [drug]/Cmax. Also, in the series with HepG2 cells, the Deltadiff is 3.9, the “EC10 IFN” value is 50.7 [drug]/Cmax, the “EC10 TNF” value is 14.1 [drug]/Cmax and the “EC10 TNF/IFN” value is 14.6 [drug]/Cmax. In addition, in the series with HepG2 cells (HepG2, 24 h), the “cytotoxic interaction of drug with TNF” value was “TNF significantly enhanced the cytotoxicity” and the “cytotoxicity of drug on its own” value is “statistically significant increase in LDH release”. For the same molecule, the Emax with HepG2 cells (setting [5]) is above 10%. Besides, in the series with HepG2 cells (setting [6]), the Emax was 101%. For the same molecule, the TNF change in the series on HepG2 cells (categorical) stood at 0. Besides, the EC10 in the series on HepG2 cells (drug alone (VEH)) was 50.9 [drug]/Cmax. In addition, in series [1], the Cmax was 164 µM.
As to `CCCC(CCC)C(=O)O` [Valproic Acid], in the series with HepG2 cells (setting [4]), the “R10 IFN” value was 51.3 [drug]/Cmax and the “R10 TNF” value is 23.3 [drug]/Cmax. For the same molecule, in the series on HepG2 cells, the Deltadiff worked out at 37.1 and the “EC10 IFN” value is 23.4 [drug]/Cmax. The Emax in the series with HepG2 cells (setting [6]) came to 44.5%. Further, the TNF change in the series with HepG2 cells (categorical) is on record as 0. Further, the Cmax in series [1] is 175 µM. Besides, in series [2], the True classification result is given as “IDILI+”.
As for `O=C1CC2(CCCC2)CC(=O)N1CCCCN1CCN(c2ncccn2)CC1` [Buspirone], the R10 in the series with HepG2 cells (setting [3]) was 0 [drug]/Cmax. For the same molecule, in the series with HepG2 cells (setting [4]), the “R10 IFN” value is 0 [drug]/Cmax, the “R10 TNF” value was 0 [drug]/Cmax and the “R10 TNF/IFN” value is 0 [drug]/Cmax. Further, in the series with HepG2 cells, the Deltadiff is recorded as 0. The Emax with HepG2 cells (setting [5]) was below 10%. Besides, in the series on HepG2 cells (setting [6]), the Emax came to 17.6%. Besides, the TNF change in the series with HepG2 cells (categorical) was 0. Besides, the Cmax in series [1] was 0.005 µM. Also, in series [2], the True classification result is reported as “IDILI−” and the IDILI liability result is “IDILI−”.
Take `CC[C@H]1OC(=O)[C@H](C)C(=O)[C@H](C)[C@@H](O[C@@H]2O[C@H](C)C[C@H](N(C)C)[C@H]2O)[C@](C)(OC)C[C@@H](C)C(=O)[C@H](C)[C@H]2N(CCCCn3cnc(-c4cccnc4)c3)C(=O)O[C@]12C` [Telithromycin]: in the series with HepG2 cells (setting [3]), the R10 is 76.6 [drug]/Cmax. In addition, in the series on HepG2 cells (setting [4]), the “R10 IFN” value is 81.3 [drug]/Cmax, the “R10 TNF” value is 50.5 [drug]/Cmax and the “R10 TNF/IFN” value was 39.3 [drug]/Cmax. In the series on HepG2 cells, the Deltadiff is reported as −17.1, the “EC10 IFN” value was 80.7 [drug]/Cmax, the “EC10 TNF” value is 47.7 [drug]/Cmax and the “EC10 TNF/IFN” value is 39.0 [drug]/Cmax. Besides, in the series on HepG2 cells (HepG2, 24 h), the “cytotoxic interaction of drug with TNF” value is recorded as “TNF significantly enhanced the cytotoxicity”, the “effect of IFN coexposure on the drug/TNF cytotoxic interaction” value is “coexposure to IFN enhanced the cytotoxic interaction” and the “cytotoxicity of drug on its own” value was “statistically significant increase in LDH release”. Further, the D10 (LDH rise of at least 10 points, yes/no) in the series on HepG2 cells (Homo sapiens, HepG2, categorical, Delta threshold 10 LDH percentage points, drug alone (VEH)) was above 10%. The Emax in the series with HepG2 cells (setting [6]) turned out to be 117%. Besides, the TNF change with HepG2 cells (categorical) is recorded as 0. In addition, the EC10 in the series with HepG2 cells (drug alone (VEH)) is 77.0 [drug]/Cmax. For the same molecule, the Cmax in series [1] was 2.77 µM. Besides, in series [2], the True classification result is given as “IDILI+” and the IDILI liability entry is “IDILI+”.
Regarding `O=C(O)Cc1ccccc1Nc1c(Cl)cccc1Cl` [Diclofenac], in the series with HepG2 cells, the R10 was 0 [drug]/Cmax, the Deltadiff turned out to be 21.0, the “EC10 TNF” value was 23.9 [drug]/Cmax and the “EC10 TNF/IFN” value is 23.2 [drug]/Cmax. In the series on HepG2 cells (setting [4]), the “R10 IFN” value is 0 [drug]/Cmax, the “R10 TNF” value is 28.3 [drug]/Cmax and the “R10 TNF/IFN” value was 26.7 [drug]/Cmax. Also, in the series with HepG2 cells (HepG2, 24 h), the “cytotoxic interaction of drug with TNF” value is “synergized with TNF to cause cytotoxicity”, the “effect of IFN coexposure on the drug/TNF cytotoxic interaction” value was “coexposure to IFN enhanced the cytotoxic interaction” and the “cytotoxicity of drug on its own” value is given as “caused no cytotoxicity on their own”. Further, the Emax in the series with HepG2 cells (Homo sapiens, HepG2, read-out: D10) is below 10%. The Emax with HepG2 cells (setting [6]) stood at 15.6%. In the series with HepG2 cells (categorical), the TNF change stood at 1.
